Results taken from patent US20150272934A1, “USE OF CSE INHIBITORS FOR THE TREATMENT OF CUTANEOUS INJURIES OR CONDITIONS AND SLEEP-RELATED BREATHING DISORDERS” (SOVA PHARMACEUTICALS, INC., priority 2012, published 2015).
Counter-ions that a name gives are not always drawn.

Tested on: deep partial thickness cutaneous burn injury, zone of stasis
Test: Comb burn model for cutaneous burn
Format: in vivo, Sprague-Dawley rats
Conditions: L-propargylglycine 100 mg/kg IP Day 0; Compound 1 20 mg/kg PO once daily; 6-day time course; versus control animals

SMILES | Viability of zones of stasis/interspaces on gross examination (burn progression)
CN(N)c1nnn[nH]1 [Compound 1, 5-(1-methylhydrazinyl)-1H-tetrazole] | maintain viability

Same assay, conditions: within 48-72 hours; less injured versus worse/the same scale

SMILES | Blinded photo grading of treated interspaces versus control interspaces
CN(N)c1nnn[nH]1 [Compound 1, 5-(1-methylhydrazinyl)-1H-tetrazole] | less injured than controls

Tested on: hypoxic ventilatory response
Test: Dose response to dl-propargylglycine (PAG) in the rat hypoxic ventilatory response (HVR) assay
Format: in vivo, Sprague Dawley rats
Conditions: PAG 1 or 3 mg/kg IP; FiO2 21% to 10%
Experimental: Male Sprague Dawley rats weighing 343±17 g (Mean±SD); weight range 316-381 g, were obtained from Harlan Laboratories and maintained on a 12 hour light:dark cycle (6 am lights on) with food and water ad libitum.
DSI: Rat unrestrained whole body plethysmography chamber (˜8″ diameter plexiglass), ACQ 7700 Acquisition Interface, Validyne DP45 low range differential pressure transducers, Ponemah software.
dl-Propargyl Glycine (PAG) was obtained from Sigma (Cat #P7888; Lot#BCBD1765V) and solubilized in 0.9% NaCl. Drugs were prepared fresh on the day of use.
Test compounds were administered via the intraperitoneal route at a dose volume of 3 mUkg.
Animals were pre-habituated to the test environment on 3 separate 1-hour periods prior to the test day. Following administration of test compounds animals were placed inside the whole body plethysmography chamber. The animals were allowed to acclimate to the environment for 60 minutes while breathing a 21% O2 balance N2 gas mix. After acclimation, the following gas mix protocol was followed:
Cycles were designated to be the periods of both normoxia and hypoxia. Each experiment consisted of 3 cycles (or repeated sets) of the HVR to a normoxic-hypoxic shift. The cycles were 30 minutes in duration to allow for serial sampling from baseline and all 4 WBP test chambers. Each sampling period was of 4 minutes duration and was in a varying order but was always preceded by a 4 minute baseline. The sampling periods were calculated to allow for equilibration of the gas mixture in the WBP chamber. Switching of the multiplexer (MUX) line sampler system was achieved through use of a user defined program. The gas mixtures were likewise switched automatically using a user defined custom mix program and the Sable Systems/Alicat Multi Flow Controller utility.
Analysis of data was performed in GraphPad Prism (v5) using embedded 1-way Analysis of Variance (ANOVA) followed by Dunnett's or Tukey's MCT post hoc testing where appropriate. Dual data sets were analyzed using the Student's t-test. Bartlett's Equal Variance tests were performed on all data sets, however failure of equal variance was not considered to impinge the validity of the test.

SMILES | Increase in minute ventilation (VE) from normoxia to hypoxia
C#CCC(N)C(=O)O (racemic) [PAG, dl-Propargylglycine] | not

Same assay, conditions: PAG 10, 30 and 100 mg/kg; both normoxic and hypoxic conditions; p<0.05

SMILES | VH2O
C#CCC(N)C(=O)O (racemic) [PAG, dl-Propargylglycine] | significantly impacted

Same assay, conditions: PAG 10, 30 and 100 mg/kg; compared to saline, p<0.05

SMILES | VE at 10% FiO2
C#CCC(N)C(=O)O (racemic) [PAG, dl-Propargylglycine] | significantly reduced

Same assay, conditions: PAG 10, 30 or 100 mg/kg IP; FiO2 21% to 10%

SMILES | Increase in minute ventilation (VE) from normoxia to hypoxia
C#CCC(N)C(=O)O (racemic) [PAG, dl-Propargylglycine] | blunted

Same assay, conditions: PAG 10 and 100 mg/kg; compared to saline, p<0.05

SMILES | VE at an FiO2 of 21%
C#CCC(N)C(=O)O (racemic) [PAG, dl-Propargylglycine] | reduced significantly

Same assay, conditions: PAG 30 and 100 mg/kg IP; p<0.05 versus vehicle

SMILES | Slope of the hypoxic ventilatory response (ΔVE, HVR)
C#CCC(N)C(=O)O (racemic) [PAG, dl-Propargylglycine] | significantly reduced

Same assay, conditions: PAG below a dose of 10 mg/kg

SMILES | Slope of the hypoxic ventilatory response (ΔVE)
C#CCC(N)C(=O)O (racemic) [PAG, dl-Propargylglycine] | no effect

Same assay, conditions: normoxic conditions; PAG 10 and 100 mg/kg; p<0.05

SMILES | VO2
C#CCC(N)C(=O)O (racemic) [PAG, dl-Propargylglycine] | significantly decreased

Same assay, conditions: rat, in vivo

SMILES | VCO2
C#CCC(N)C(=O)O (racemic) [PAG, dl-Propargylglycine] | no effect

Tested on: obstructive sleep apnea
Test: not given
Conditions: twelve patients; cited from earlier work

SMILES | decrease in occurrence of apnea episodes [%] | decrease in sleep disruptions [%]
CN1CCN2c3ncccc3Cc3ccccc3C2C1 (stereo not shown) [mirtazapine] | 50 | 28

Target: human, mouse or rat recombinant CSE (UniProt P32929)
Test: CSE In Vitro Assay
Conditions: not given

SMILES | IC50 [µM]
CCN(N)c1nnn[nH]1 [Example 2-4] | < 10
CN(N)c1nnn(C)n1 [Example 2-29, 2-methyl-5-(1-methylhydrazinyl)-2H-tetrazole] | > 100

Same assay, conditions: […]; species of enzyme not given

SMILES | IC50 [µM]
N#CCC(N)c1nnn[nH]1 (stereo not shown) [Example 1-1, 3-amino-3-(1H-tetrazol-5-yl)propionitrile dihydrochloride] | > 100
COCCN(N)c1nnn[nH]1 [Example 2-6] | 10 to 100
NCCCN(N)c1nnn[nH]1 [Example 2-12, 3-(1-(1H-tetrazol-5-yl)hydrazinyl)propan-1-amine dihydrochloride] | < 10

Same assay, conditions: recombinant CSE 20 ug/ml, 50 uM PLP, DL-homocysteine substrate, 3 hours 37° C.; species of enzyme not given

IC50 [µM] | SMILES
< 10 | C#CC[C@H](N)c1nnn[nH]1 [Example 1-2, (S)-1-(1H-tetrazol-5-yl)-but-3-ynylamine hydrochloride]
< 10 | C#CC[C@H](N)c1ncn[nH]1 [Example 1-4, (S)-1-(1H-1,2,4-triazol-5-yl)but-3-yn-1-amine hydrochloride]
10 to 100 | C#CC[C@H](N)C(=O)Nc1nn[nH]n1 [Example 1-7, (S)-2-amino-N-(2H-tetrazol-5-yl)pent-4-ynamide]
10 to 100 | CN(C)CCCN(N)c1nnn[nH]1 [Example 2-1, 3-(1-(1H-tetrazol-5-yl)hydrazinyl)-N,N-dimethylpropan-1-amine]
> 100 | CN(C)CCN(N)c1nnn[nH]1 [Example 2-2, 2-(1-(1H-tetrazol-5-yl)hydrazinyl)-N,N-dimethylethanamine]
> 100 | COCCCN(N)c1nnn[nH]1 [Example 2-5]
> 100 | NN(Cc1ccccc1)c1nnn[nH]1 [Example 2-8]
> 100 | CC(C)CN(N)c1nnn[nH]1 [Example 2-10]
< 10 | CNCCCN(N)c1nnn[nH]1 [Example 2-15]
10 to 100 | C(=N\Nc1nnn[nH]1)/c1ccccc1 [Example 2-17, (E)-5-(2-benzylidenehydrazinyl)-1H-tetrazole]
10 to 100 | CN(C)c1ccc(/C=N/Nc2nnn[nH]2)cc1 [Example 2-18]
> 100 | Clc1ccc(/C=N/Nc2nnn[nH]2)c(Cl)c1 [Example 2-19]
< 10 | Clc1ccc(/C=N/Nc2nnn[nH]2)cc1 [Example 2-20]
< 10 | C/C(=N\Nc1nnn[nH]1)c1ccc(N(C)C)cc1 [Example 2-22]
< 10 | C1CCC(=NNc2nnn[nH]2)CC1 [Example 2-23]
< 10 | C1CCC(=NNc2nnn[nH]2)C1 [Example 2-24]
< 10 | CC/C(C)=N/Nc1nnn[nH]1 [Example 2-25]
< 10 | CN(C)c1ccc(C(=O)C/C=N/Nc2nnn[nH]2)cc1 [Example 2-26, (E)-3-(2-(1H-tetrazol-5-yl)hydrazono)-1-(4-(dimethylamino)phenyl)propan-1-one]
10 to 100 | CN(C)c1ccc(/C=N/N(C)c2nnn[nH]2)cc1 [Example 2-27, (E)-N,N-dimethyl-4-((2-methyl-2-(1H-tetrazol-5-yl)hydrazono)methyl)aniline]
< 10 | CC(C)=NN(C)c1nnn[nH]1 [Example 2-28, 5-(1-methyl-2-(propan-2-ylidene)hydrazinyl)-1H-tetrazole]
> 100 | CCN(N)c1ncn[nH]1 [Example 2-31, 5-(1-ethylhydrazinyl)-1H-1,2,4-triazole]
10 to 100 | CN(N)c1noc(=O)[nH]1 [Example 2-32, 3-(1-methylhydrazinyl)-1,2,4-oxadiazol-5(4H)-one hydrochloride]
> 100 | CCN(N)C(=O)c1nnn[nH]1 [Example 2-33, N-ethyl-1H-tetrazole-5-carbohydrazide]
> 100 | CCN(N)C(=O)Nc1nnn[nH]1 [Example 2-34, 1-ethyl-N-(1H-tetrazol-5-yl)hydrazinecarboxamide]

The next lines start with the compound.

SMILES | IC50 [µM]
C#CC[C@H](N)c1noc(=O)[nH]1 [Example 1-3, (S)-3-(1-aminobut-3-ynyl)-1,2,4-oxadiazol-5(4H)-one hydrochloride] | < 10
C#CC[C@H](N)c1nc(C(F)(F)F)n[nH]1 [Example 1-5, (S)-1-(3-(trifluoromethyl)-1H-1,2,4-triazol-5-yl)but-3-yn-1-amine hydrochloride] | > 100
C#CC[C@H](N)c1nc(N)n[nH]1 [Example 1-6, (S)-5-(1-aminobut-3-ynyl)-1H-1,2,4-triazol-3-amine hydrochloride] | > 100
C#CC[C@H](N)C(=O)NS(=O)(=O)c1ccccc1 [Example 1-8, (S)-2-amino-N-(phenylsulfonyl)pent-4-ynamide hydrochloride] | 10 to 100
C#CC[C@H](N)C(=O)NS(C)(=O)=O [Example 1-9, (S)-2-amino-N-(methylsulfonyl)pent-4-ynamide hydrochloride] | 10 to 100
C#CCN(N)c1nnn[nH]1 [Example 2-3, 5-(1-(prop-2-ynyl)hydrazinyl)-1H-tetrazole] | < 10
CCCN(N)c1nnn[nH]1 [Example 2-7] | 10 to 100
CC(C)N(N)c1nnn[nH]1 [Example 2-9] | > 100
CN(N)c1nnn[nH]1 [Example 2-11] | < 10
NCCN(N)c1nnn[nH]1 [Example 2-13] | < 10
CNCCN(N)c1nnn[nH]1 [Example 2-14] | 10 to 100
CC(C)=NNc1nnn[nH]1 [Example 2-21] | < 10
CCN(N)C(=O)NS(=O)(=O)c1ccccc1 [Example 2-35, 1-ethyl-N-(phenylsulfonyl)hydrazinecarboxamide] | > 100
